Measured values: patent US10227388B2, “Peptides and combination of peptides for use in immunotherapy against non-small cell lung cancer and other cancers” (immatics biotechnologies GmbH, priority 2015, dated 2019)

Tests used:
[1] = biological target: HLA-A*02:01 (Homo sapiens, UniProt P04439, D140Y/D185E/D98H/E176V/E277Q/G131W/G231S/I119V/I121R/I166T/I218V/L300P/L318F/N151K/N90K/P208A/P217A/Q86G/Q94H/R138H/R169H/T345S); assay: MHC binding assay (UV-ligand exchange, ELISA, peptide exchange yield); details: binding of HLA-class I restricted peptides to HLA-A*02:01
How it was run: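 Peptide–HLA-A*02:01 complexes made by UV-ligand exchange of a UV-cleavable peptide for the test peptide. Exchange yield measured by ELISA: 100-fold diluted monomers captured on streptavidin, 1 h at 37° C., detected with HRP anti-β2m and TMB, absorbance at 450 nm.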

[2] = tested on: CD8+ T cells; assay: In vitro immunogenicity: T-cell priming with artificial antigen presenting cells loaded with peptide/MHC complexes and anti-CD28 antibody, multimer readout; format: cell-based, human; details: for Wells positive [%]: HLA-A*02 restricted peptides, positive wells among evaluable
Method: In an aspect, the peptides are pre-screened for immunogenicity before being included in the warehouse. By way of example, and not limitation, the immunogenicity of the peptides included in the warehouse is determined by a method comprising in vitro T-cell priming through repeated stimulations of CD8+ T cells from healthy donors with artificial antigen presenting cells loaded with peptide/MHC complexes and anti-CD28 antibody.
In order to obtain information regarding the immunogenicity of the TUMAPs of the present invention, the inventors performed investigations using an in vitro T-cell priming assay based on repeated stimulations of CD8+ T cells with artificial antigen presenting cells (aAPCs) loaded with peptide/MHC complexes and anti-CD28 antibody.
In order to perform in vitro stimulations by artificial antigen presenting cells loaded with peptide-MHC complex (pMHC) and anti-CD28 antibody, the inventors first isolated CD8+ T cells from fresh HLA-A*02 leukapheresis products via positive selection using CD8 microbeads (Miltenyi Biotec, Bergisch-Gladbach, Germany) of healthy donors obtained from the University clinics Mannheim, Germany, after informed consent.
PBMCs and isolated CD8+ lymphocytes were incubated in T-cell medium (TCM) until use consisting of RPMI-Glutamax (Invitrogen, Karlsruhe, Germany) supplemented with 10% heat inactivated human AB serum (PAN-Biotech, Aidenbach, Germany), 100 U/ml Penicillin/100 μg/ml Streptomycin (Cambrex, Cologne, Germany), 1 mM sodium pyruvate (CC Pro, Oberdorla, Germany), 20 μg/ml Gentamycin (Cambrex). 2.5 ng/ml IL-7 (PromoCell, Heidelberg, Germany) and 10 U/ml IL-2 (Novartis Pharma, Nürnberg, Germany) were also added to the TCM at this step.
Generation of pMHC/anti-CD28 coated beads, T-cell stimulations and readout was performed in a highly defined in vitro system using four different pMHC molecules per stimulation condition and 8 different pMHC molecules per readout condition.
The purified co-stimulatory mouse IgG2a anti human CD28 Ab 9.3 (Jung et al., 1987) was chemically biotinylated using Sulfo-N-hydroxysuccinimidobiotin as recommended by the manufacturer (Perbio, Bonn, Germany). Beads used were 5.6 μm diameter streptavidin coated polystyrene particles (Bangs Laboratories, Illinois, USA).
pMHC used for positive and negative control stimulations were A*0201/MLA-001 (peptide […] (SEQ ID NO. 664) from modified Melan-A/MART-1) and A*0201/DDX5-001 ([…] from DDX5, SEQ ID NO. 665), respectively.
800.000 beads/200 μl were coated in 96-well plates in the presence of 4×12.5 ng different biotin-pMHC, washed and 600 ng biotin anti-CD28 were added subsequently in a volume of 200 μl. Stimulations were initiated in 96-well plates by co-incubating 1×10^6 CD8+ T cells with 2×10^5 washed coated beads in 200 μl TCM supplemented with 5 ng/ml IL-12 (PromoCell) for 3 days at 37° C. Half of the medium was then exchanged by fresh TCM supplemented with 80 U/ml IL-2 and incubating was continued for 4 days at 37° C. This stimulation cycle was performed for a total of three times. For the pMHC multimer readout using 8 different pMHC molecules per condition, a two-dimensional combinatorial coding approach was used as previously described (Andersen et al., 2012) with minor modifications encompassing coupling to 5 different fluorochromes. Finally, multimeric analyses were performed by staining the cells with Live/dead near IR dye (Invitrogen, Karlsruhe, Germany), CD8-FITC antibody clone SK1 (BD, Heidelberg, Germany) and fluorescent pMHC multimers. For analysis, a BD LSRII SORP cytometer equipped with appropriate lasers and filters was used. Peptide specific cells were calculated as percentage of total CD8+ cells. Evaluation of multimeric analysis was done using the FlowJo software (Tree Star, Oreg., USA). In vitro priming of specific multimer+CD8+ lymphocytes was detected by comparing to negative control stimulations. […]

Row | Substance | Peptide exchange (MHC class I binding score, peptide exchange yield) [1] | in vitro immunogenicity, donors ([2]; percentage of positive donors) | in vitro immunogenicity, wells ([2]; percentage of positive wells) | Wells positive [%] [2]
1 | 283 (ALYIGDGYVIHLA; listed as Homo sapiens) [compound 283] | ″+++″ (≥50% = +++) | +++ (50%-69% = +++) | + (<20% = +) | –
2 | 319 (SLEPQIQPV; listed as Homo sapiens) [compound 319] | ″++″ (≥20% = ++) | – | – | ″+″ (<20% = +)
3 | 384 (ILFANPNIFV; listed as Homo sapiens) [compound 384] | ″+++″ (≥50% = +++) | – | – | ″+″ (<20% = +)
4 | 443 (GLWEIENNPTV; listed as Homo sapiens) [compound 443] | ″+++″ (≥50% = +++) | – | – | ″+″ (<20% = +)
5 | 460 (AMLEKNYKL; listed as Homo sapiens) [compound 460] | ″++++″ (≥75% = ++++) | – | – | ″+″ (<20% = +)
6 | 489 (KMWEELPEVV; listed as Homo sapiens) [compound 489] | ″+++″ (≥50% = +++) | – | – | ″+″ (<20% = +)
7 | 499 (KIFDIDEAEEGV; listed as Homo sapiens) [compound 499] | ″++″ (≥20% = ++) | – | – | ″+″ (<20% = +)
8 | 511 (FLDPYCSASV; listed as Homo sapiens) [compound 511] | ″++″ (≥20% = ++) | – | – | ″+″ (<20% = +)
9 | 603 (FLIEPEHVNTV; listed as Homo sapiens) [compound 603] | ″++″ (≥20% = ++) | – | – | ″+″ (<20% = +)
